According to paper PMC9130233, “An inhibitor of RORγ for chronic pulmonary obstructive disease treatment” (Scientific Reports, 2022):

Experiments:
IL-22 in hPBMCs = test: IL-22 release, human PBMC, TCR activating conditions; format: cell-based; conditions: read-out: hIL-22 IC50
Method: (§1) An increase in the levels of Th17 dependent cytokine in the peripheral blood of COPD patients as compared to the Th1 and Th2 dependent cytokines has been well documented in a subset of COPD patients. A comparative study was performed under TCR activating conditions to evaluate the potencies of PCCR-1 for inhibition across Th1, Th2 and Th17 dependent cytokines using hPBMCs.
(§2) Human whole blood from healthy subjects were procured from Clinical Research Unit, Sanpada. Clinical Research Center Glenmark (Plot No. D, 508, Turbhe, TTC Industrial Area, MIDC, Sanpada, Navi Mumbai, Maharashtra 400705, India). PBMCs were isolated using heparinized blood with Ficoll Histopaque. Briefly, the cells were seeded in 96-well plate pre-coated with human anti-CD3 mAb (10 µg/mL), post 30 min of compound treatment cells were stimulated with human anti-CD28 mAb (2 µg/mL). After 72 h of culture, the supernatant was collected for Th1/Th2 cytokines; IFN-γ, IL-2, IL-4 and IL-10 and measured by ELISA. For Th17 polarization assay, the following cytokine cocktail was used: IL-1β (10 ng/ml), IL-23(10 ng/ml), IL-6 (50 ng/ml), TGF-β1 (3 ng/ml), IL-2 (20U/ml) and supernatants were used for measuring IL-17 and IL-22 by ELISA.

[1] = test system: Nuclear receptors (RORα, RARα, LXRα, LXRβ, RXR, FXR); test: Cerep panel, nuclear receptors: binding assays; design: key: NSE No significant effect; V wk very weak (very low-level agonist activity seen with mPPARγ); conditions: at 10 µM
From the text: (§3) Based on the homology of the ligand binding domains, 3 different isoforms of ROR (hRORα, hRORβ and hRORγ) are reported. Small variations in the LBD regions possibly lead to differences in competitive binding between the nuclear receptors of the ROR isoforms (Fig. 1b). Similar to the assessment of RORγ binding assay, TR-FRET binding assays were also used to assess the affinity of PCCR-1 for other ROR isoforms. […] This was reconfirmed in cellular functional assays for the selected isoforms and nuclear receptors using Gal4 DBD with luciferase reporter system from Indigo (PA, USA). […] In addition, both cellular agonist and antagonist effects as well as for enzyme activity were evaluated with a known reference compound for each target, using a radiolabeled method (Eurofins Cerep, France, Table 1).

[2] = test system: Th1 (IL-2 and IFN-γ) and Th2 (IL-4, IL-13 and IL-10) dependent cytokines in hPBMCs; test: Th1 and Th2 cytokine release, human PBMC, TCR activating conditions; format: cell-based; conditions: hPBMC, even at 10 µM
Method: as §1, §2

[3] = test system: IL-17 release in mouse peritoneal neutrophils; test: IL-17 release, mouse peritoneal neutrophils, LPS; format: cell-based; conditions: Neutrophil, n = 2, read-out: potency, IL-17 release inhibition
Method: The peritoneal neutrophils or macrophages were isolated from C57BL/6 male mice or BALB/c female mice (6–8 wks; 18–22 g) injected with 3% or 4% thioglycollate broth. After 4 h or 4 days, RPMI medium was injected into the peritoneal cavity of mouse and peritoneal lavage was collected. The lavage was pooled and spun at 800 rpm for 10 min. The pellet was re-suspended in 1X Gey’s solution for 5 min followed by PBS wash. In case of neutrophils, the isolated cells were seeded in 48 well plate for 1.5 h. After 1.5 h, the supernatant containing peritoneal neutrophils were collected and centrifuged at 2000 rpm for 10 min and the pellet were re-suspended in 2% RPMI. In case of isolated peritoneal macrophages, the cells were seeded in 48 well plate for 3–4 h followed by PBS wash. Both the neutrophils and macrophages were treated with PCCR-1 in 2% RPMI for 1 h followed by stimulation with 10 µg/ml or 5 µg/ml of LPS for 18 h or 24 h. The supernatant collected for IL-17 estimation by ELISA.

RORα = test system: T1, RORα; test: TR-FRET selectivity binding assay, RORα; design: species or system human
T1 construct: purchased Invitrogen
From the text: as §3
(§4) For selectivity, the ROR isoforms RORα, FXR, LXRα, LXRβ, RXR, RARα were incubated with compound for 60 min at 22 °C followed by detection mix containing respective agonist (All trans retinoic acid for RARα, T0901317 for LXRα, LXRβ, 9-cis Retinoic acid for RXR, GW-4064 for FXR) and coactivator peptide (FD22 for RORα, PGC1α for RXR, RARα, TRAP220 for LXRα, LXRβ, SRC2-2 for FXR) and Tb-anti GST antibody prepared in assay buffer were added into a 384-well white plate. Reading taken after overnight incubation and the data analysis done as per the protocol mentioned in RORγt-LBD and co-activator ligand binding assay.

[4] = Single dose intranasal PK study in mice; format: in vivo, mouse
Method: A single dose intranasal PK study of PCCR-1 was conducted in male C57 mice at 20 and 50 µg/animal dose. The formulation was prepared in saline with 0.1% v/v tween-80 as the wetting agent. Animals were anesthetized briefly using gaseous isoflurane and oxygen mixture and a 40 µL of the formulation was instilled into both the nostrils (20 µL each) once the animal reached a regular breathing pattern and at pre-determined time points (0.25 h, 0.5 h, 1 h, 2 h, 4 h, 8 h and 24 h), approximately 0.3 mL of blood samples were collected using retro-orbital puncture in suitable anticoagulant (K3 EDTA). The animals were immediately sacrificed and lung was isolated. Blood samples were centrifuged (3000 rpm, 5 min) and plasma was harvested. Lung samples were homogenized in PBS buffer (pH 7.4) and centrifuged to collect the supernatant. Both plasma and lung samples were extracted using methyl t-butyl ether, mixed and centrifuged. The supernatant samples obtained after centrifugation were dried and reconstituted with acetonitrile-ammonium acetate buffer (90:10). The samples were mixed and analyzed in LCMS/MS for the analyte concentrations. Concentration vs time values were subjected to non-compartmental analysis using Phoenix WinNonlin® (Version 6.4) to estimate the appropriate pharmacokinetics parameters.

LXRα = test system: T2, LXRα; test: TR-FRET selectivity binding assay, LXRα
T2 construct: purchased Invitrogen
From the text: as §3, §4

In the case of `CCn1c(C(C)(C)Oc2ccc(F)cc2F)nc2cc(NC(=O)Cc3ccc(S(=O)(=O)CC)cc3)ccc21` [PCCR-1], the IC50 (IL-22 in hPBMCs) is reported as 297 nM, the “Nuclear receptors: binding assays (RORα, RARα, LXRα, LXRβ, RXR, FXR)” value [1] is reported as “NSE at 10 µM” and the “inhibition of Th1 (IL-2 and IFN-γ) and Th2 (IL-4, IL-13 and IL-10) dependent cytokines” value [2] is reported as “did not show significant inhibition”. The IC50 [3] was 245 nM, the “% Inhibition RORα” value (RORα; 1 µM) was 20.91% and the “% Inhibition RORα” value (RORα; 10 µM) was 19.82%. For the same compound, the “Fold over hRORγ, RORα” value (RORα; vs RORg IC50 31.87 nM) was > 313.7 fold, the “quantifiable levels in lungs, time post dose” value [4] was “up to 24 h” and the “mean lung to plasma AUClast ratio” value ([4]; both doses (20 and 50 µg)) was > 1000. The “time of peak lung concentrations post dose” value ([4]; both doses (20 and 50 µg)) was 2 to 4 h, the Kp ([4]; male, C57, mouse, lung/plasma, inhaled or intranasal, 50 ug, both doses (20 and 50 µg), read-out: mean lung to plasma Cmax ratio) was > 1000 and the “% Inhibition LXRα” value (LXRα; 1 µM) was 11.38%. For the same compound, the “% Inhibition LXRα” value (LXRα; 10 µM) was 30.37% and the “Fold over hRORγ, LXRα” value (LXRα; vs RORg IC50 31.87 nM) was > 313.7 fold.
